Data: ChEMBL document CHEMBL5143540, “Design, synthesis and biological evaluation of nitrofuran-1,3,4-oxadiazole hybrids as new antitubercular agents” (Bioorg Med Chem, 2022)
Values after ≈ are worked out from the molar mass of the structure shown.

Experiments:
[1] = test system: Mycobacterium tuberculosis; assay: Antitubercular activity against Mycobacterium tuberculosis H37Ra ATCC 25177 assessed as reduction in bacterial growth incubated for 7 days by Alamar blue assay; type: functional; details: H37Ra ATCC 25177, 168 h, time 7 day
[2] = Cytotoxicity against african green monkey Vero cells assessed as reduction in cell viability after 72 hrs by MTT assay; type: toxicity, cell-based; details: chlorocebus sabaeus
[3] = Volume of distribution in ICR mouse at 25 mg/kg, po measured upto 24 hrs by HPLC analysis; type: ADME, organism-based; details: in vivo
[4] = Half life in ICR mouse at 25 mg/kg, po measured upto 24 hrs by HPLC analysis; type: ADME, organism-based; details: in vivo
[5] = target: hERG (KCNH2) (Homo sapiens, UniProt Q12809); assay: Inhibition of human ERG expressed in HEK293 cells at 10 uM by whole cell electrophysiology assay relative to control; type: toxicity, cell-based; details: HEK293 cells expressing hERG
[6] = Tmax in ICR mouse at 25 mg/kg, po measured upto 24 hrs by HPLC analysis; type: ADME, organism-based; details: in vivo
[7] = Cmax in ICR mouse at 25 mg/kg, po measured upto 24 hrs by HPLC analysis; type: ADME, organism-based; parameters: dose 25 mg/kg, time < 24 hrs, route po; details: in vivo
[8] = target: Voltage-gated inwardly rectifying potassium channel KCNH2 (Homo sapiens, UniProt Q12809); assay: Inhibition of human ERG expressed in HEK293 cells by whole cell electrophysiology assay; type: toxicity, cell-based
[9] = Clearance in ICR mouse at 25 mg/kg, po measured upto 24 hrs by HPLC analysis; type: ADME, organism-based; details: in vivo
[10] = MRT in ICR mouse at 25 mg/kg, po measured upto 24 hrs by HPLC analysis; type: ADME, organism-based; details: in vivo
[11] = AUC(0 to infinity) in ICR mouse at 25 mg/kg, po measured upto 24 hrs by HPLC analysis; type: ADME, organism-based; parameters: dose 25 mg/kg, time < 24 hrs, route po; details: in vivo

Sequence of Voltage-gated inwardly rectifying potassium channel KCNH2 (Q12809 whole entry): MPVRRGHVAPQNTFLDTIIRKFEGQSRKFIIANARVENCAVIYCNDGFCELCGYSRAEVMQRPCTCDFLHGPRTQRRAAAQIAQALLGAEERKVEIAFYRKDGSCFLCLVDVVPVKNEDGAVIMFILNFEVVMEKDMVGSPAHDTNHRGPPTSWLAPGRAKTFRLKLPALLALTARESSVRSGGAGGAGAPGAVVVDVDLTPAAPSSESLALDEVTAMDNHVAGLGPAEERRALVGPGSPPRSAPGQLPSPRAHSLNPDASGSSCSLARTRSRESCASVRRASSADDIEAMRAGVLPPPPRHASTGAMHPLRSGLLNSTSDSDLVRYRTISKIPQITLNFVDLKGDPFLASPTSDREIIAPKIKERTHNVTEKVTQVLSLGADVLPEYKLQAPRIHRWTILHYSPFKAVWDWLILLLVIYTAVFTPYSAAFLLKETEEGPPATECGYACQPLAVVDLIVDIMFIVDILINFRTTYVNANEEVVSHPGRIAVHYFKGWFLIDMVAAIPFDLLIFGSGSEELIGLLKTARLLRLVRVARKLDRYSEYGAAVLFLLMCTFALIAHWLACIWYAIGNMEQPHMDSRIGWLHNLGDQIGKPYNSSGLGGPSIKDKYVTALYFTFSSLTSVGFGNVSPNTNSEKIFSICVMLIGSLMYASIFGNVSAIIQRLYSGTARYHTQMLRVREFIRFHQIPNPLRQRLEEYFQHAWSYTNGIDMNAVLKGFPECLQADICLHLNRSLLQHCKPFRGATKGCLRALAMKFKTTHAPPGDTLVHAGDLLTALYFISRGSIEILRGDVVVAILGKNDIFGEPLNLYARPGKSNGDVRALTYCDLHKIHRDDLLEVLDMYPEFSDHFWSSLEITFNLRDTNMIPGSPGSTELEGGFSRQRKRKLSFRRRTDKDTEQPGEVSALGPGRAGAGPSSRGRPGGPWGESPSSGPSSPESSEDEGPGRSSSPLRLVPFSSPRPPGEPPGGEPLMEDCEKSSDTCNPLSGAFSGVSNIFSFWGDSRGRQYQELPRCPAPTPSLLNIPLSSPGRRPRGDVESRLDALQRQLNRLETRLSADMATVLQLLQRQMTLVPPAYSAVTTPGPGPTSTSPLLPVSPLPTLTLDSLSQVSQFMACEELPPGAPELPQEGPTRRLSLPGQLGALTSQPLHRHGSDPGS
Sequence of hERG (KCNH2) (Q12809 whole entry): as above

For COc1ccc(Cc2nnc(NC(=O)c3ccc([N+](=O)[O-])o3)o2)cc1, the MIC [1] was 0.02 µg/mL (≈ 0.0581 µM).

For O=[N+]([O-])c1ccc(-c2nnc(-c3ccc(Br)cc3)o2)o1, the MIC [1] was 0.597 µg/mL (≈ 1.78 µM).

Compound O=C(Nc1nnc(C2CCCO2)o1)c1ccc([N+](=O)[O-])o1 (configuration not stated) has an MIC [1] of 0.007 µg/mL (≈ 0.0238 µM).

Work on CCC(CC)c1nnc(-c2ccc([N+](=O)[O-])o2)o1 yielded an MIC [1] of 0.911 µg/mL (≈ 3.63 µM).

NNC(=O)c1ccncc1 [ISONIAZID] showed an MIC [1] greater than 16 µg/mL.

Compound O=C(NCc1nnc(-c2ccc(OC(F)(F)F)cc2)o1)c1ccc([N+](=O)[O-])o1 has a CC50 at 72 h [2] of 3.48 µg/mL (≈ 8.74 µM) and an MIC [1] of 9.86 µg/mL (≈ 24.8 µM).

With CC(C)c1nnc(-c2ccc([N+](=O)[O-])o2)o1 the MIC [1] was 0.709 µg/mL (≈ 3.18 µM).

With CC(C)(C)c1ccc(-c2nnc(-c3ccc([N+](=O)[O-])o3)o2)cc1 the MIC [1] was 0.06 µg/mL (≈ 0.192 µM).

O=C(Nc1nnc(-c2ccc(C(F)(F)F)cc2)o1)c1ccc([N+](=O)[O-])o1 showed an MIC [1] of 0.999 µg/mL (≈ 2.71 µM).

For O=[N+]([O-])c1ccc(-c2nnc(-c3ccc(C(F)(F)F)cc3)o2)o1, the MIC [1] was 0.125 µg/mL (≈ 0.384 µM).

With O=C(Nc1nnc(-c2ccccn2)o1)c1ccc([N+](=O)[O-])o1 the MIC [1] was 0.03 µg/mL (≈ 0.0996 µM).

Compound O=C(Nc1nnc(-c2ccc(OC(F)(F)F)cc2)o1)c1ccc([N+](=O)[O-])o1 has an MIC [1] of 1.23 µg/mL (≈ 3.2 µM).

With O=C(Nc1nnc(-c2cccnc2)o1)c1ccc([N+](=O)[O-])o1 the MIC [1] was 0.037 µg/mL (≈ 0.123 µM).

Work on COc1ccc(-c2nnc(NC(=O)c3ccc([N+](=O)[O-])o3)o2)cc1 yielded an MIC [1] of 0.191 µg/mL (≈ 0.578 µM).

With O=C(Nc1nnc(-c2ccncc2)o1)c1ccc([N+](=O)[O-])o1 the MIC [1] was 0.038 µg/mL (≈ 0.126 µM).

With O=C(NCc1nnc(-c2ccccc2)o1)c1ccc([N+](=O)[O-])o1 the MIC [1] was 2.43 µg/mL (≈ 7.74 µM).

O=[N+]([O-])c1ccc(-c2nnc(C3CCCO3)o2)o1 (configuration not stated) showed an MIC [1] of 2 µg/mL (≈ 7.96 µM).

O=C(NCc1nnc(-c2ccc(C(F)(F)F)cc2)o1)c1ccc([N+](=O)[O-])o1 gave a CC50 at 72 h [2] of 3.56 µg/mL (≈ 9.32 µM) and an MIC [1] of 3.73 µg/mL (≈ 9.75 µM).

Compound O=[N+]([O-])c1ccc(-c2nnc(-c3ccccc3)o2)o1 has an MIC [1] of 1.59 µg/mL (≈ 6.17 µM).

CO[C@H]1/C=C/O[C@@]2(C)Oc3c(C)c(O)c4c(O)c(c(/C=N/N5CCN(C)CC5)c(O)c4c3C2=O)NC(=O)/C(C)=C\C=C\[C@H](C)[C@H](O)[C@@H](C)[C@@H](O)[C@@H](C)[C@H](OC(C)=O)[C@@H]1C [RIFAMPIN] showed an MIC [1] greater than 16 µg/mL.

Compound O=C(Nc1nnc(C2CCCCC2)o1)c1ccc([N+](=O)[O-])o1 has an MIC [1] of 0.025 µg/mL (≈ 0.0816 µM).

Work on CC(C)(C)c1ccc(-c2nnc(NC(=O)c3ccc([N+](=O)[O-])o3)o2)cc1 yielded an MIC [1] greater than 16 µg/mL.

Compound O=C(Nc1nnc(-c2ccc(Br)cc2)o1)c1ccc([N+](=O)[O-])o1 has a Vd [3] of 1.46 L/kg, a half-life [4] of 270 min and a CC50 at 72 h [2] of 57.3 µg/mL (≈ 151 µM). For the same compound, the inhibition at 10 µM [5] was 11.3%, the Tmax [6] was 15 min and the Cmax [7] was 15800 ng/mL. For the same compound, the MIC [1] was 0.795 µg/mL (≈ 2.1 µM), the IC50 [8] was greater than 10 µM and the CL/F [9] was 3.79 mL/min/kg. It also gave an MRT [10] of 382 min and an AUC(0-inf) [11] of 110000 ng·h/mL.

For O=c1nc(N2CCN(CC3CCCCC3)CC2)sc2c([N+](=O)[O-])cc(C(F)(F)F)cc12 [MACOZINONE], the Vd [3] was 56.8 L/kg and the CL/F [9] was 279 mL/min/kg.

In the case of O=[N+]([O-])c1ccc(-c2nnc(-c3ccc(OC(F)(F)F)cc3)o2)o1, the MIC [1] is reported as 0.178 µg/mL (≈ 0.522 µM).

CC(C)(C)c1ccc(-c2nnc(CNC(=O)c3ccc([N+](=O)[O-])o3)o2)cc1 gave a Vd [3] of 227 L/kg, a half-life [4] of 40.2 min and a CC50 at 72 h [2] of 3.62 µg/mL (≈ 9.79 µM). The Tmax [6] was 15 min, the Cmax [7] was 139 ng/mL and the MIC [1] was 4.83 µg/mL (≈ 13 µM). It also gave a CL/F [9] of 4600 mL/min/kg, an MRT [10] of 55.2 min and an AUC(0-inf) [11] of 99.3 ng·h/mL.

With COc1ccc(-c2nnc(CNC(=O)c3ccc([N+](=O)[O-])o3)o2)cc1 the MIC [1] was 7.07 µg/mL (≈ 20.5 µM).

Compound O=[N+]([O-])c1ccc(-c2nnc(C3CCCCC3)o2)o1 has an MIC [1] of 1.97 µg/mL (≈ 7.47 µM).

O=C(Nc1nnc(-c2ccc(Cl)cc2)o1)c1ccc([N+](=O)[O-])o1 showed an MIC [1] of 0.937 µg/mL (≈ 2.8 µM).

COc1ccc(-c2nnc(-c3ccc([N+](=O)[O-])o3)o2)cc1 showed an MIC [1] of 0.475 µg/mL (≈ 1.65 µM).

Compound O=C(Nc1nnc(-c2ccc(F)cc2)o1)c1ccc([N+](=O)[O-])o1 has an MIC [1] of 2.47 µg/mL (≈ 7.77 µM).
